# Test results from patent US5059717A, “Method for purification of 2,2'-di(1,6,7-trihydroxy-3-methyl-5-isopropyl-8-naphthaldehyde)” (priority 1990, dated 1991).
# Tested on: mice
# Test: Acute toxicity in oral administration to mice
# Assay type: in vivo
# Description: The results of tests for an acute toxicity of the thus-obtained desired product when administered orally to mice are shown in the Table hereinbelow.
# The results of tests of the thus-obtained desired product for an acute toxicity in oral administration to mice are shown in the Table hereinbelow.
# Acute toxicity of 2,2'-di-(1,6,7-trihydroxy-3-methyl-
# 5-isopropyl-8-naphthaldehyde) in oral administration
row,SMILES,LD50
1,"Cc1cc2c(C(C)C)c(O)c(O)c(C=O)c2c(O)c1-c1c(C)cc2c(C(C)C)c(O)c(O)c(C=O)c2c1O [Example 1, 2,2'-di-(1,6,7-trihydroxy-3-methyl-5-isopropyl-8-naphthaldehyde)]",640 (450-768) mg/kg
2,"Cc1cc2c(C(C)C)c(O)c(O)c(C=O)c2c(O)c1-c1c(C)cc2c(C(C)C)c(O)c(O)c(C=O)c2c1O [Example 3, 2,2'-di-(1,6,7-trihydroxy-3-methyl-5-isopropyl-8-naphthaldehyde)]",750 (646-870) mg/kg
3,"Cc1cc2c(C(C)C)c(O)c(O)c(C=O)c2c(O)c1-c1c(C)cc2c(C(C)C)c(O)c(O)c(C=O)c2c1O [known preparation, 2,2'-di-(1,6,7-trihydroxy-3-methyl-5-isopropyl-8-naphthaldehyde), reference compound]",383 (340-426) mg/kg
4,"Cc1cc2c(C(C)C)c(O)c(O)c(C=O)c2c(O)c1-c1c(C)cc2c(C(C)C)c(O)c(O)c(C=O)c2c1O [Example 2, 2,2'-di-(1,6,7-trihydroxy-3-methyl-5-isopropyl-8-naphthaldehyde)]","over 1,500 mg/kg"
